Here are results for eleven compounds from patent US9155795B2, “CXCR4 receptor compounds” (Anchor Therapeutics, Inc., priority 2010, dated 2015).

Where a SMILES comes first, the peptide text is derived from it. [ ]: non-standard residue; d: D form. The star is where a group is joined. Palmitoyl = CCCCCCCCCCCCCCCC(=O)*; X1 = CCCCCCCCCCCCOCCC(=O)*; hSer = N[C@@H](CCO)C(=O)O; Nle = CCCC[C@H](N)C(=O)O; Pra = C#CC[C@H](N)C(=O)O

T1 sequence (P61073 whole entry): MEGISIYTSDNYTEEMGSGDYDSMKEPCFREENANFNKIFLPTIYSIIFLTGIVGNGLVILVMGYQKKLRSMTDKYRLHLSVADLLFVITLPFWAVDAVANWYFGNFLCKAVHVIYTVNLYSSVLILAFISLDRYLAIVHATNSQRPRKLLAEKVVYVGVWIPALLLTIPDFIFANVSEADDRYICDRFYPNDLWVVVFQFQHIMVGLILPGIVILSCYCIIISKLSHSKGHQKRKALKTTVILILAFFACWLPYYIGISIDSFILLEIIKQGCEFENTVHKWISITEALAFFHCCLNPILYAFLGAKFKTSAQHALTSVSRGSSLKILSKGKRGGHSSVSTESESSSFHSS

The test concerns the target T1, CXCR4 (Homo sapiens, UniProt P61073).
T1 construct: CCRF-CEM cells, a human T-cell ALL line that endogenously expresses CXCR4; endogenous in cells; host or cells: CCRF-CEM (human T-cell acute lymphoblastic leukemia line)
The test can be described thus: Calcium flux assay, agonist mode, Flexstation (CCRF-CEM cells). Type of test: cell-based. To be noted: CCRF-CEM, percent of maximum response compared with SDF-1α, read-out: % Intrinsic Activity. The source says: Calcium Flux Assay is one of the most popular cell-based GPCR functional assays. It most often uses calcium sensing fluorescent dyes such as fura2 AM, fluo-4 and Calcium-4 to measure changes in intracellular calcium concentration. It is used mainly to detect GPCR signaling via Gαq subunit. Activation of these Gq-coupled GPCRs leads to activation of phospholipase C, which subsequently leads to increase in inositol phosphate production. IP3 receptors on endoplasmic reticulum sense the change then release calcium into cytoplasm. Intracellular calcium binding to the fluorescent dyes can be detected by instruments that quantify fluorescent intensities, such as FLIPR Tetra, Flexstation (MDS) and FDSS (Hamamatsu). In addition, to assess Gq-couple receptor signaling, a calcium flux assay can also be used to study Gs and Gi couple receptors by co-expressing CNG (cyclic nucleotide gated calcium channel) or chimeric G-proteins (Gqi5, Gsi5 for example). Activation of some Gi-coupled receptors can also be detected by calcium flux assay via Gβγ mediated phospholipase C activation.
The calcium flux assay was used to assess the test compounds' ability to activate the CXCR4 receptor in CCRF-CEM cells (human T lymphoblasts from acute lymphoblastic leukemia). […] After dye loading by incubating with Calcium-4 dye at 37° C. for 1 hour, cell plates were read at 37° C. using the using the Flexstation 3 workstation. Receptor activation was assessed by measuring changes in fluorescent intensity after the addition of the test compounds or the reference agonist SDF-1α on the using the Flexstation 3 workstation. EC50
and percent intrinsic actively were derived from the data collected. Intrinsic activity refers to the efficacy of the test compound and is calculated as the percent of maximum response compared with the response of the reference standard (i.e., natural agonist, SDF-1α).
`CCCCCCCCCCCCCCCC(=O)NCC(=O)N[C@@H](Cc1ccc(O)cc1)C(=O)N[C@@H](CCC(N)=O)C(=O)N[C@@H](CCCCN)C(=O)N[C@@H](CCCCN)C(=O)N[C@@H](CC(C)C)C(=O)N[C@@H](CCCNC(=N)N)C(=O)N[C@@H](CO)C(=O)N[C@@H](CCCC)C(=O)N[C@H](C(=O)N[C@@H](CC(=O)O)C(=O)N[C@@H](CCCCN)C(=O)N[C@@H](Cc1ccc(O)cc1)C(=O)N[C@@H](CCCNC(=N)N)C(=O)N[C@H](C(N)=O)[C@@H](C)CC)[C@@H](C)O` [Compound 20] (Palmitoyl-GYQKKLRS[Nle]TDKYRI-NH2; C-terminus assumed): the Emax was determined as 62.5%.
Under `CCCCCCCCCCCCCCCC(=O)N[C@@H](CCOC)C(=O)NCC(=O)N[C@@H](Cc1ccc(O)cc1)C(=O)N[C@@H](CCC(N)=O)C(=O)N[C@@H](CCCCN)C(=O)N[C@@H](CCCCN)C(=O)N[C@@H](CC(C)C)C(=O)N[C@@H](CCCNC(=N)N)C(=O)N[C@@H](CO)C(=O)N[C@@H](CCOC)C(=O)N[C@H](C(=O)N[C@@H](CC(=O)O)C(=O)N[C@@H](CCCCN)C(=O)N[C@@H](Cc1ccc(O)cc1)C(=O)N[C@@H](CCCNC(=N)N)C(=O)N[C@@H](CC(C)C)C(N)=O)[C@@H](C)O` [Compound 22] (Palmitoyl-[hSer](Me)GYQKKLRS[hSer](Me)TDKYRL-NH2) stands 77.7%; under `CCCCCCCCCCCCCCCC(=O)N[C@@H](COC)C(=O)NCC(=O)N[C@@H](Cc1ccc(O)cc1)C(=O)N[C@@H](CCC(N)=O)C(=O)N[C@@H](CCCCN)C(=O)N[C@@H](CCCCN)C(=O)N[C@@H](CC(C)C)C(=O)N[C@@H](CCCNC(=N)N)C(=O)N[C@@H](CO)C(=O)N[C@@H](COC)C(=O)N[C@H](C(=O)N[C@@H](CC(=O)O)C(=O)N[C@@H](CCCCN)C(=O)N[C@@H](Cc1ccc(O)cc1)C(=O)N[C@@H](CCCNC(=N)N)C(=O)N[C@@H](CC(C)C)C(N)=O)[C@@H](C)O` [Compound 23] (Palmitoyl-S(Me)GYQKKLRSS(Me)TDKYRL-NH2), 87.2%.
Under `C#CC[C@H](NC(=O)CCCCCCCCCCCCCCC)C(=O)NCC(=O)N[C@@H](Cc1ccc(O)cc1)C(=O)N[C@@H](CCC(N)=O)C(=O)N[C@@H](CCCCN)C(=O)N[C@@H](CCCCN)C(=O)N[C@@H](CC(C)C)C(=O)N[C@@H](CCCNC(=N)N)C(=O)N[C@@H](CO)C(=O)N[C@@H](CCSC)C(=O)N[C@H](C(=O)N[C@@H](CC(=O)O)C(=O)N[C@@H](CCCCN)C(=O)N[C@@H](Cc1ccc(O)cc1)C(=O)N[C@@H](CCCNC(=N)N)C(=O)N[C@@H](CC(C)C)C(N)=O)[C@@H](C)O` [Compound 24] (Palmitoyl-[Pra]GYQKKLRSMTDKYRL-NH2; C-terminus assumed) stands 76.6%; under `CCCCCCCCCCCCCCCC(=O)NCC(=O)NCC(=O)N[C@@H](Cc1ccc(O)cc1)C(=O)N[C@@H](CCC(N)=O)C(=O)N[C@@H](CCCCN)C(=O)N[C@@H](CCCCN)C(=O)N[C@@H](CC(C)C)C(=O)N[C@@H](CCCNC(=N)N)C(=O)N[C@@H](CO)C(=O)N[C@@H](C)C(=O)N[C@H](C(=O)N[C@@H](CC(=O)O)C(=O)N[C@@H](CCCCN)C(=O)N[C@@H](Cc1ccc(O)cc1)C(=O)N[C@@H](CCCNC(=N)N)C(=O)N[C@@H](CC(C)C)C(N)=O)[C@@H](C)O` [Compound 25] (Palmitoyl-GGYQKKLRSATDKYRL-NH2; C-terminus assumed), 89.4%; under `CCCCCCCCCCCCCCCC(=O)NCC(=O)NCC(=O)N[C@@H](Cc1ccc(O)cc1)C(=O)N[C@@H](CCC(N)=O)C(=O)N[C@@H](CCCCN)C(=O)N[C@@H](CCCCN)C(=O)N[C@@H](CC(C)C)C(=O)N[C@@H](CCCNC(=N)N)C(=O)N1CCC[C@@H]1C(=O)N[C@@H](C)C(=O)N[C@H](C(=O)N[C@@H](CC(=O)O)C(=O)N[C@@H](CCCCN)C(=O)N[C@@H](Cc1ccc(O)cc1)C(=O)N[C@@H](CCCNC(=N)N)C(=O)N[C@@H](CC(C)C)C(N)=O)[C@@H](C)O` [Compound 27] (Palmitoyl-GGYQKKLR[dP]ATDKYRL-NH2; C-terminus assumed), 111%.
Under `CCCCCCCCCCCCCCCC(=O)NCC(=O)NCC(=O)N[C@@H](Cc1ccc(O)cc1)C(=O)N[C@@H](CCC(N)=O)C(=O)N[C@@H](CCCCN)C(=O)N[C@@H](CCCCN)C(=O)N1CCC[C@@H]1C(=O)N[C@@H](CCCNC(=N)N)C(=O)N1CCC[C@@H]1C(=O)N[C@@H](C)C(=O)N[C@H](C(=O)N[C@@H](CC(=O)O)C(=O)N[C@@H](CCCCN)C(=O)N[C@@H](Cc1ccc(O)cc1)C(=O)N[C@@H](CCCNC(=N)N)C(=O)N[C@@H](CC(C)C)C(N)=O)[C@@H](C)O` [Compound 28] (Palmitoyl-GGYQKK[dP]R[dP]ATDKYRL-NH2; C-terminus assumed) stands 107%.
`CCCCCCCCCCCCCCCC(=O)NCC(=O)NCC(=O)N[C@@H](Cc1ccc(O)cc1)C(=O)N[C@@H](CCC(N)=O)C(=O)N[C@@H](CCCCN)C(=O)N[C@@H](CCCCN)C(=O)N[C@@H](CC(C)C)C(=O)N[C@@H](CCCNC(=N)N)C(=O)N1CCC[C@@H]1C(=O)N[C@@H](C)C(=O)N[C@H](C(=O)N[C@@H](CC(=O)O)C(=O)N[C@@H](CCCCN)C(=O)N[C@@H](Cc1ccccc1)C(=O)N[C@@H](CCCNC(=N)N)C(=O)N[C@@H](CC(C)C)C(N)=O)[C@@H](C)O` [Compound 29] (Palmitoyl-GGYQKKLR[dP]ATDKFRL-NH2; C-terminus assumed): the Emax is 88.9%.
The result for `CCCCCCCCCCCCCCCC(=O)N[C@@H](CS)C(=O)NCC(=O)N[C@@H](Cc1ccc(O)cc1)C(=O)N[C@@H](CCC(N)=O)C(=O)N[C@@H](CCCCN)C(=O)N[C@@H](CCCCN)C(=O)N[C@@H](CC(C)C)C(=O)N[C@@H](CCCNC(=N)N)C(=O)N[C@@H](CO)C(=O)N[C@@H](C)C(=O)N[C@H](C(=O)N[C@@H](CC(=O)O)C(=O)N[C@@H](CCCCN)C(=O)N[C@@H](Cc1ccc(O)cc1)C(=O)N[C@@H](CCCNC(=N)N)C(=O)N[C@@H](CC(C)C)C(N)=O)[C@@H](C)O` [Compound 30] (Palmitoyl-CGYQKKLRSATDKYRL-NH2; C-terminus assumed) reads 95.3%; that for `CCCCCCCCCCCCOCCC(=O)NCC(=O)NCC(=O)N[C@@H](Cc1ccc(O)cc1)C(=O)N[C@@H](CCC(N)=O)C(=O)N[C@@H](CCCCN)C(=O)N[C@@H](CCCCN)C(=O)N[C@@H](CC(C)C)C(=O)N[C@@H](CCCNC(=N)N)C(=O)N[C@@H](CO)C(=O)N[C@@H](C)C(=O)N[C@H](C(=O)N[C@@H](CC(=O)O)C(=O)N[C@@H](CCCCN)C(=O)N[C@@H](Cc1ccc(O)cc1)C(=O)N[C@@H](CCCNC(=N)N)C(=O)N[C@@H](CC(C)C)C(N)=O)[C@@H](C)O` [Compound 31] (X1-GGYQKKLRSATDKYRL-NH2; C-terminus assumed), 84.2%; that for `CCCCCCCCCCCCCCCC(=O)NCC(=O)NCC(=O)N[C@@H](Cc1ccc(O)cc1)C(=O)N[C@@H](CCC(N)=O)C(=O)N[C@@H](CCCCN)C(=O)N[C@@H](CCCCN)C(=O)N[C@@H](CC(C)C)C(=O)N[C@@H](CCCNC(=N)N)C(=O)N1CCC[C@@H]1C(=O)N1CCC[C@@H]1C(=O)N[C@@H](Cc1c[nH]cn1)C(=O)N[C@H](C(=O)N[C@@H](CC(=O)O)C(=O)N[C@@H](CCCCN)C(=O)N[C@@H](Cc1ccc(O)cc1)C(=O)N[C@@H](CCCNC(=N)N)C(=O)N[C@@H](CC(C)C)C(N)=O)[C@@H](C)O` [Compound 32] (Palmitoyl-GGYQKKLR[dP][dP]HTDKYRL-NH2; C-terminus assumed), 91.1%.
